From patent US4960883A, “Piperazines and homopiperazines” (Kowa Company, Ltd., priority 1988, dated 1990)

System: Rabbit PRP, ADP-induced platelet aggregation
Experiment: Inhibitory effect on ADP-induced platelet aggregation
Assay type: cell-based
Details: ADP (2 μm); for Platelet aggregation inhibitory concentration: concentration at which the inhibition rate (%) in parentheses was found
Description: (B) Inhibitory effect on ADP-induced platelet aggregation
Rabbit PRP (250 μl) was preincubated with drug samples ([…]) of aqueous solution or 1 µl of DMSO solution) at 37° C. for 1 minute, and ADP (2 μm)-induced platelet aggregation was measured by aggregometer (NKK HEMA TRACERl Model PAT-4M). Inhibitory effects of the drugs were estimated from the standard curve of maximal aggregation.

SMILES	Platelet aggregation inhibition rate (%) in the parentheses (at 10^-5 mole/liter) [%]	Platelet aggregation inhibitory concentration	Platelet aggregation inhibition rate (%) in the parentheses (at 10^-4 mole/liter) [%]
COc1ccc(S(=O)(=O)N2CCN(CC(COCC(C)C)N(C)Cc3ccccc3)CC2)cc1OC (stereo not drawn) [Example 1, 1-(3,4-dimethoxybenzenesulfonyl)-4-(3-isobutoxy-2-methylbenzylaminopropyl)-piperazine]	12	10^-5 mole/liter	–
CC(C)COCC(CN1CCCN(S(=O)(=O)c2ccccc2)CC1)N(C)Cc1ccccc1 (stereo not drawn) [Example 2, 1-benzenesulfonyl-4-(3-isobutoxy-2-methylbenzylaminopropyl)homopiperazine]	–	10^-4 mole/liter	60
CC(C)COCC(CN1CCN(C(=O)CCO[N+](=O)[O-])CC1)N(C)Cc1ccccc1 (stereo not drawn) [Example 7]	–	10^-4 mole/liter	33
CC(C)COCC(CN1CCN(S(=O)(=O)c2cccc3c(Cl)cccc23)CC1)N(C)Cc1ccccc1 (stereo not drawn) [Example 9]	8	10^-5 mole/liter	–
CC(C)COCC(CN1CCN(S(C)(=O)=O)CC1)N(C)Cc1ccccc1 (stereo not drawn) [Example 10]	–	10^-4 mole/liter	35
CC(C)COCC(CN1CCN(S(=O)(=O)c2ccccc2)CC1)N(C)Cc1ccccc1 (stereo not drawn) [Example 11]	–	10^-4 mole/liter	33
